Reference: article PMC9329436, “Optimization of the 4-anilinoquin(az)oline scaffold as epidermal growth factor receptor (EGFR) inhibitors for chordoma utilizing a toxicology profiling assay platform” (Scientific Reports, 2022)
Read-outs that look alike come from different tables or passages of the source.

Legend:
Type in all cases: biochemical
[1] = biological target: 320 wild-type protein kinases (Homo sapiens, UniProt P30291); conditions: kinase WEE1, singlicate
Source text: (§1) Table S4. Profiling of two compounds at two concentrations against 320 wild-type protein kinases; singlicate measurement; Residual activities (% of control).

[2] = biological target: 320 wild-type protein kinases (Homo sapiens, UniProt P19784); conditions: singlicate
320 wild-type protein kinases (Homo sapiens, UniProt P19784), sequence (P19784 whole entry): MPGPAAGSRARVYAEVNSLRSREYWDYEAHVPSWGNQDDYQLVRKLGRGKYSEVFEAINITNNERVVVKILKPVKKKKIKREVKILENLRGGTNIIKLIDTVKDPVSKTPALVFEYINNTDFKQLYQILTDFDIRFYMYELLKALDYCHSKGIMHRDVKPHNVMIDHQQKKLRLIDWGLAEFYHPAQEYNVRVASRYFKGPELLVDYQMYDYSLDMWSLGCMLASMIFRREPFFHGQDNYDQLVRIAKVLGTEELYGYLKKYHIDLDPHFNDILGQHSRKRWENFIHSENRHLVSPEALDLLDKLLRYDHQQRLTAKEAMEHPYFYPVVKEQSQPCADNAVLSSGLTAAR
Source text: as §1

[3] = biological target: 320 wild-type protein kinases (Homo sapiens, UniProt Q8N5S9); conditions: singlicate
320 wild-type protein kinases (Homo sapiens, UniProt Q8N5S9), sequence (Q8N5S9 whole entry): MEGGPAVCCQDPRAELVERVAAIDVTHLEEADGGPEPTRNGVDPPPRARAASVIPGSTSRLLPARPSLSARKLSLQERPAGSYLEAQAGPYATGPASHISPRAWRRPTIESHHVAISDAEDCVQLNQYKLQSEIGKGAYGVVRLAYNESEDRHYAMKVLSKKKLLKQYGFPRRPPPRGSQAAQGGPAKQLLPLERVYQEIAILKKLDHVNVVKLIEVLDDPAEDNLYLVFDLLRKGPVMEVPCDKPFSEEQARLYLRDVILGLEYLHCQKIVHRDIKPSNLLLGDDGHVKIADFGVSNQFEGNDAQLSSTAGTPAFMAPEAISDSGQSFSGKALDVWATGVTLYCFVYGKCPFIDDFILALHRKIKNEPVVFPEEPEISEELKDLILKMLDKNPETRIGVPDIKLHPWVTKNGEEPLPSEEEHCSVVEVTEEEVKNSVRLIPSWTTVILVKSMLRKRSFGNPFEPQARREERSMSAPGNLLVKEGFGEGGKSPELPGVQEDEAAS
Source text: as §1

[4] = biological target: T1, 320 wild-type protein kinases (Homo sapiens, UniProt P52333); conditions: singlicate
T1 sequence (P52333 1-1124): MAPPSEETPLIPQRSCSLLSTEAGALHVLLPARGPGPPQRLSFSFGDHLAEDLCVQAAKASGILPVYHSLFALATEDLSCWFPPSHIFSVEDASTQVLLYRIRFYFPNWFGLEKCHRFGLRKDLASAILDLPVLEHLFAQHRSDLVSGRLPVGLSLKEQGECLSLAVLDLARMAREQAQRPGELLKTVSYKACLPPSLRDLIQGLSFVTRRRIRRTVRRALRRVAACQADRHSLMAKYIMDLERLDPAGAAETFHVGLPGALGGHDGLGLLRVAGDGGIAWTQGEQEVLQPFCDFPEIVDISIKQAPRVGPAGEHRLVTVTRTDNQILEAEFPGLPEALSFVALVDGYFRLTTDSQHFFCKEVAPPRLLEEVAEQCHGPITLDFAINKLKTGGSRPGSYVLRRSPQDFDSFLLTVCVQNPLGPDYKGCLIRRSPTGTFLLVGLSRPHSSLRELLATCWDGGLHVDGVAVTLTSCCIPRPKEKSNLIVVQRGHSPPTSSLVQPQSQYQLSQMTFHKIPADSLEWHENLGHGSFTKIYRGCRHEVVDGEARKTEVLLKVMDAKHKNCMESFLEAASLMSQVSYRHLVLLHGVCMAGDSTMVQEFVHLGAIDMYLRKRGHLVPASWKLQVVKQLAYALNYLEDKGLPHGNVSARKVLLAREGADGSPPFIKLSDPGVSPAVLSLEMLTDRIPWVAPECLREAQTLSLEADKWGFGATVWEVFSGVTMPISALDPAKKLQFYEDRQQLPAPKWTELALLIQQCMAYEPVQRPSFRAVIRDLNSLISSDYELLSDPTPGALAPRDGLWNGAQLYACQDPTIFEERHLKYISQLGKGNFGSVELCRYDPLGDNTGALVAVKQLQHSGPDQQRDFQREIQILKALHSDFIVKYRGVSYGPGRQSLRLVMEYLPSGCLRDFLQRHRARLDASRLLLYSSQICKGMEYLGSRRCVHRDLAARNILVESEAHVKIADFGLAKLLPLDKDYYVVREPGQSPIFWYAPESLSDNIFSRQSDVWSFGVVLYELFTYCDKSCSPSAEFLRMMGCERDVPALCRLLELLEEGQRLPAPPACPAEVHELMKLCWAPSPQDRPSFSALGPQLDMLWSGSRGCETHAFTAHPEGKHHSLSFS
Source text: as §1

[5] = biological target: T2, 320 wild-type protein kinases (Homo sapiens, UniProt P51955); conditions: singlicate
T2 sequence (P51955 1-445): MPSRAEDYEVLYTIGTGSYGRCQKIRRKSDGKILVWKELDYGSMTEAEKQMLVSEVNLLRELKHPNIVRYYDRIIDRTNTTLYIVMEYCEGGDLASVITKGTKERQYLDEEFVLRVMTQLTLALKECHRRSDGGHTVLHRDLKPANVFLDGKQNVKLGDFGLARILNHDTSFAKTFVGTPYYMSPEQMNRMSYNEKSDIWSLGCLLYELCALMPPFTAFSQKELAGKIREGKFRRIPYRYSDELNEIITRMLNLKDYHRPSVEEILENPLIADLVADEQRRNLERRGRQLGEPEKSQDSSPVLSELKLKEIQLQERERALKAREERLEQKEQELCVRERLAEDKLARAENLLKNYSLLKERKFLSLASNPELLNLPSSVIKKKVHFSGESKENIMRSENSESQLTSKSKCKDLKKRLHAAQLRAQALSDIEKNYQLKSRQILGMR
Source text: as §1

[6] = biological target: 320 wild-type protein kinases (Homo sapiens, UniProt Q9Y3S1); conditions: kinase WNK2, singlicate
320 wild-type protein kinases (Homo sapiens, UniProt Q9Y3S1), sequence (Q9Y3S1 whole entry): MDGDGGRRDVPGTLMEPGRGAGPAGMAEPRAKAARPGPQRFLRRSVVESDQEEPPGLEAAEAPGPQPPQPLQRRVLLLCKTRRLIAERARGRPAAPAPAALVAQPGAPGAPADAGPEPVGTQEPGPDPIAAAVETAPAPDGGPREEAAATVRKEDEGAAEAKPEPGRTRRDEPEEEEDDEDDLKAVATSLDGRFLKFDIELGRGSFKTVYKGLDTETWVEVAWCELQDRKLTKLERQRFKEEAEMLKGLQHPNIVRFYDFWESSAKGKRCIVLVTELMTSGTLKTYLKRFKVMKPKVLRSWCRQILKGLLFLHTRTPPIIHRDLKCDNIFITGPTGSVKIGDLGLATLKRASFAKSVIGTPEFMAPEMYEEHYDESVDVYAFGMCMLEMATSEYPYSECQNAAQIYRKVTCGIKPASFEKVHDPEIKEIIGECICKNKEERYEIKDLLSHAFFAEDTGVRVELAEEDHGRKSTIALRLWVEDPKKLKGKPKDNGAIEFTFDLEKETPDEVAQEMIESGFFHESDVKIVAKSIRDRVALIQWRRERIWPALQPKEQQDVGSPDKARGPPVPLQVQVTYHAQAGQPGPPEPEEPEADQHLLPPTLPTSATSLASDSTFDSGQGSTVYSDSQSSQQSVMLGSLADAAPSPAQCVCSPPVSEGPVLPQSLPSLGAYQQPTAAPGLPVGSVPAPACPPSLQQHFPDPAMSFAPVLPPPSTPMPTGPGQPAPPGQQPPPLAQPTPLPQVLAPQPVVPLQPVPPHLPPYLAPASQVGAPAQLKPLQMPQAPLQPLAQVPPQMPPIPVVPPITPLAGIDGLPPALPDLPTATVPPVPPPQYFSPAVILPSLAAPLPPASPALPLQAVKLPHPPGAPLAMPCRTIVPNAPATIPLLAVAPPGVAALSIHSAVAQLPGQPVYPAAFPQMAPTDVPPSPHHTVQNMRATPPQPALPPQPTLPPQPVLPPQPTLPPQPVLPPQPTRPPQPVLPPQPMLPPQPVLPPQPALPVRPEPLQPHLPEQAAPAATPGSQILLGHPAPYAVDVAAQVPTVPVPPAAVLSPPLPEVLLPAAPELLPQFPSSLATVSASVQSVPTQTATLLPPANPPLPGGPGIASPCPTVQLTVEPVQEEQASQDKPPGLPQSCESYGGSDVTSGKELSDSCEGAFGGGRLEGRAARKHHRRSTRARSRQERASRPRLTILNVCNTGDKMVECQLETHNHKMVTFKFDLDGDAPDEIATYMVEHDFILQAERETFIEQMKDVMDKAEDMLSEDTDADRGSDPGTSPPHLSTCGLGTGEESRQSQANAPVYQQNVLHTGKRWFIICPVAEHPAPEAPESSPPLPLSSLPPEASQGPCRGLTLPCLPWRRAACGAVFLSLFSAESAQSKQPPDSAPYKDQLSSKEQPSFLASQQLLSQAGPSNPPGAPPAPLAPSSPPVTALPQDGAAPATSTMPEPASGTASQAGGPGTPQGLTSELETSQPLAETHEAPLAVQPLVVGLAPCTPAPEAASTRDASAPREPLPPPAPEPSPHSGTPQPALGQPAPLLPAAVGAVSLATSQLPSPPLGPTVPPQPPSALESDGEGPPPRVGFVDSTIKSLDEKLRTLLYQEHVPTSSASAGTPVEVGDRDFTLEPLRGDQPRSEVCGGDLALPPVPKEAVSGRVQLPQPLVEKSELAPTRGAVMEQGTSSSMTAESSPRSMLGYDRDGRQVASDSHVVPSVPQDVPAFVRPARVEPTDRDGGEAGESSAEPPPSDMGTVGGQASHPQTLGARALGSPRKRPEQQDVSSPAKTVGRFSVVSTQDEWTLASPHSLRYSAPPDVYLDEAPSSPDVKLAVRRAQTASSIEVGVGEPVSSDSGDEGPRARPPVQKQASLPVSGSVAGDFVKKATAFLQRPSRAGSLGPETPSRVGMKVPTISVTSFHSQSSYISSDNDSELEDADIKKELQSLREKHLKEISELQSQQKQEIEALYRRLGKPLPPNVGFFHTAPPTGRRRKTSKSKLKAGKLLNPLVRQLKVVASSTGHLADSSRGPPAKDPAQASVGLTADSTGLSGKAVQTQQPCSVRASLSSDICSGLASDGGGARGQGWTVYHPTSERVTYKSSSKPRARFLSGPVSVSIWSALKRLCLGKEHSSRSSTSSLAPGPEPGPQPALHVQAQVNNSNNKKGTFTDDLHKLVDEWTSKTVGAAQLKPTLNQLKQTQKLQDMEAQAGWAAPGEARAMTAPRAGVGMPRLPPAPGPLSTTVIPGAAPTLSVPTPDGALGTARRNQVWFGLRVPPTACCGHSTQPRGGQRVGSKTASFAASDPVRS
Source text: as §1

[7] = biological target: T3, 320 wild-type protein kinases (Homo sapiens, UniProt Q8TF76); conditions: singlicate
T3 sequence (Q8TF76 1-798): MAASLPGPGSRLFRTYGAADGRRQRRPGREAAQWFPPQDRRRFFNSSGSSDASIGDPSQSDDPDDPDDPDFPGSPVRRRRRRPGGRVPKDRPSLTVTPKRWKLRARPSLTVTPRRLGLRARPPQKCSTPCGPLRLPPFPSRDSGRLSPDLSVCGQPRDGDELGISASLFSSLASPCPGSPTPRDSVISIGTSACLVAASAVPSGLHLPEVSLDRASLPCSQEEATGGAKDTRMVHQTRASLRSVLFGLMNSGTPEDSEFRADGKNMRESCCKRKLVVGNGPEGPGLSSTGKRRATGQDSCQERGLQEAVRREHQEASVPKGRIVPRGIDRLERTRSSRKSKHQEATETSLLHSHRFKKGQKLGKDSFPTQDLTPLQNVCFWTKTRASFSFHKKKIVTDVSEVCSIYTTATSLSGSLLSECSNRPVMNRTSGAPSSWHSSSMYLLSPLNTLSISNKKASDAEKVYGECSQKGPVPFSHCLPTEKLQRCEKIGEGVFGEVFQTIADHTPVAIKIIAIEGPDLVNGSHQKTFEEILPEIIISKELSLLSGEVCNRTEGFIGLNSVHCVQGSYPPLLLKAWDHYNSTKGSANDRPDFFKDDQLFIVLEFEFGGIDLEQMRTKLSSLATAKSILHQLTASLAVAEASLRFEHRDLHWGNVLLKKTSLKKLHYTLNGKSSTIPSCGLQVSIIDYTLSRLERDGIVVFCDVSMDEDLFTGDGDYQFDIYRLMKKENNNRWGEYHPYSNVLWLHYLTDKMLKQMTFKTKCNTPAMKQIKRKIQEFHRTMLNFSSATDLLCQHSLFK
Source text: as §1

[8] = biological target: 320 wild-type protein kinases (Homo sapiens, UniProt P49137); conditions: singlicate
320 wild-type protein kinases (Homo sapiens, UniProt P49137), sequence (P49137 whole entry): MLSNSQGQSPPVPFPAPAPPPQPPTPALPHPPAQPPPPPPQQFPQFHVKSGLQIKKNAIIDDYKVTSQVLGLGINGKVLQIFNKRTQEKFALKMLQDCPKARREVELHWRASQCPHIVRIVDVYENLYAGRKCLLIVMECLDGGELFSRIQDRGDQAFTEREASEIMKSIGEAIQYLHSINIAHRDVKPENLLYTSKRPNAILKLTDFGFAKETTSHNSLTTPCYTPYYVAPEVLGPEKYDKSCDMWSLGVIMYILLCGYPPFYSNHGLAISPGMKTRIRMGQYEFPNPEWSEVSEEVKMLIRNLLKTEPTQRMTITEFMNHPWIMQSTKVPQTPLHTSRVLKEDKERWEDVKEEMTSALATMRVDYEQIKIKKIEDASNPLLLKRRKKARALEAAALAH
Source text: as §1

320 wild-type protein kinases (Homo sapiens, UniProt P30291), sequence (P30291 whole entry): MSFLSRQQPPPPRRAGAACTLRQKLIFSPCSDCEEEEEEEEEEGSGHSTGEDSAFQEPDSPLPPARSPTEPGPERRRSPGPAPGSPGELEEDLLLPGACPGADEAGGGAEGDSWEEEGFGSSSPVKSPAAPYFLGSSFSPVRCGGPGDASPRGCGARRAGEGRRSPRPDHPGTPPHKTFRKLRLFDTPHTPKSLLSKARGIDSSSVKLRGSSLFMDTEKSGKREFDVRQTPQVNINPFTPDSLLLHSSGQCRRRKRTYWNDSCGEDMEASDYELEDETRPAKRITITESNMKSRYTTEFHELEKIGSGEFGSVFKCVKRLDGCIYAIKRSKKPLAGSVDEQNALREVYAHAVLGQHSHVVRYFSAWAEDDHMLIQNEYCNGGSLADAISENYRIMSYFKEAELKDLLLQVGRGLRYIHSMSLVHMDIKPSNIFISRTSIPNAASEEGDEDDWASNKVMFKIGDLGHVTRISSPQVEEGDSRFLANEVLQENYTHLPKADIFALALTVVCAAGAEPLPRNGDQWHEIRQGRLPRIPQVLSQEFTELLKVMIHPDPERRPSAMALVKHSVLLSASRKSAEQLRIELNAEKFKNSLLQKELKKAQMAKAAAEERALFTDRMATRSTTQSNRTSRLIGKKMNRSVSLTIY

SMILES | Residual activity, WEE1 ([1]; assay conc. 1.0E-06 M) | Residual activity, WEE1 ([1]; assay conc. 1.0E-07 M) | Residual activity ([2]; CK2-alpha2, 1.0E-06 M) | Residual activity ([2]; CK2-alpha2, 1.0E-07 M) | Residual activity ([3]; CAMKK1, 1.0E-06 M) | Residual activity ([3]; CAMKK1, 1.0E-07 M) | Residual activity ([4]; JAK3, 1.0E-06 M) | Residual activity ([4]; JAK3, 1.0E-07 M) | Residual activity ([5]; NEK2, 1.0E-06 M) | Residual activity ([5]; NEK2, 1.0E-07 M) | Residual activity, WNK2 ([6]; assay conc. 1.0E-06 M) | Residual activity, WNK2 ([6]; assay conc. 1.0E-07 M) | Residual activity ([7]; GSG2, 1.0E-06 M) | Residual activity ([7]; GSG2, 1.0E-07 M) | Residual activity ([8]; MAPKAPK2, 1.0E-07 M) | Residual activity ([8]; MAPKAPK2, 1.0E-06 M)
C#Cc1cc(Nc2ncnc3cc(I)ccc23)ccc1Cl [Compound 41] | 87 % of control | 112 % of control | 115 % of control | 115 % of control | 84 % of control | 87 % of control | 78 % of control | 108 % of control | 82 % of control | 96 % of control | 82 % of control | 108 % of control | 112 % of control | 113 % of control | 139 % of control | –
C#Cc1cc(Nc2ncnc3cc(OC)c(OC)cc23)ccc1Cl [Compound 45] | 76 % of control | 109 % of control | 111 % of control | 118 % of control | 110 % of control | 91 % of control | 85 % of control | 112 % of control | 86 % of control | 92 % of control | 92 % of control | 97 % of control | 109 % of control | 115 % of control | – | 138 % of control
